Columns and labels:
[1] = DPPH radical scavenging assay; format: biochemical; details: supplement tables; for DPPH, mean±SD: n = 3
Description: The DPPH radical scavenging activity of the sample was assessed following a modified protocol based on a previous study. In each well of a 96-well plate, 10 μL of the sample was added, followed by 190 μL of 0.1 mM DPPH solution in 70% ethanol. The mixture was then incubated at room temperature in the dark for 30 min. After the incubation period, the absorbance of the mixture was measured at 517 nm. The DPPH radical scavenging activity was calculated using the following equation (1):
DPPHradicalscavengingactivity%=Acontrol–Asample/Acontrol×100 (1)
In this equation, Acontrol represents the absorbance of a control solution containing all reagents except for the test samples, while Asample is the absorbance of the mixture (the sample combined with 0.1 mM DPPH). To determine the Trolox equivalent antioxidant capacity (TEAC), a Trolox standard curve was utilized. The results were expressed as millimoles of Trolox equivalents per milligram of protein (mM TE/mg protein).

[2] = ABTS radical scavenging assay; format: biochemical; details: supplement tables; for ABTS, mean±SD: n = 3
Description: The ABTS radical scavenging activity of the sample was measured using a method adapted from Mirzaei et al.. The ABTS radical was generated by mixing 7 mM ABTS with 2.45 mM potassium persulfate in a 1:1 ratio and incubating the mixture in the dark at room temperature for 12 to 16 h. The resulting solution was then diluted to achieve an absorbance of 0.74 ± 0.03 at 734 nm, using deionized water for adjustments. Next, 10 μL of the sample was added to 190 μL of the ABTS solution. The mixture was incubated in the dark for 7 min, after which the absorbance was measured at 734 nm. The ABTS radical scavenging activity (%) was calculated using the following equation (2):
ABTSradicalscavengingactivity%=Acontrol–Asample/Acontrol×100 (2)
In this equation, Acontrol refers to the absorbance of the control solution (which contains all reagents except the test samples), while Asample refers to the absorbance of the mixture containing the sample and the ABTS solution. To determine the Trolox equivalent antioxidant capacity (TEAC), a Trolox standard curve was used, and the results were expressed as millimoles of Trolox equivalents per milligram of protein (mM TE/mg protein).

[3] = Ferric reducing antioxidant power (FRAP) assay; format: biochemical
Description: The FRAP assay was conducted following the method outlined by Rumpf et al.. The FRAP solution was prepared by mixing 300 mM acetate buffer (pH 3.6), 10 mM TPTZ (2,4,6-Tris(2-pyridyl)-s-triazine) in 40 mM hydrochloric acid, and 20 mM FeCl3 in a ratio of 10:1:1. In a 96-well plate, 10 μL of the sample was combined with 190 μL of the FRAP solution and incubated in the dark for 15 min. The absorbance of the mixture was then measured at 593 nm. FeSO4 was used to create the standard curve, and the results were expressed as millimoles of FeSO4 equivalent per milligram of protein (mM FeSO4/mg protein).

RAW 264.7 [4] = test: Anti-inflammation assay: released NO in LPS-stimulated RAW 264.7 (Griess); format: cell-based, Murine; details: then 1 µg/mL LPS 24 h; for Released NO: peptide 10 µg/mL 1 h; for Released NO, mean±SD: peptide 10 µg/mL pre-treatment 1 h, Griess reagent, n = 3
Description: (§1) Murine macrophage cells (RAW 264.7; ATCC TIB-71™) were cultured in Dulbecco’s Modified Eagle’s Medium (DMEM) that was supplemented with 10% heat-inactivated fetal bovine serum (FBS) and 1% antibiotic solution. Colorectal adenocarcinoma cells (CaCo-2; ATCC HTB 37™) were cultured in Eagle’s Minimum Essential Medium (EMEM), also supplemented with 10% heat-inactivated FBS and 1% antibiotic solution. Both cell types were maintained in a humidified incubator with 5% CO2. The cell culture medium was refreshed every three days.
The anti-inflammation assay was conducted following the method described by Barzkar et al. with slight modifications. RAW 264.7 (1 x 10^5 cells) was seeded into a 96-well plate to allow for cell attachment. After 24 h, the cells were pre-treated with fresh medium containing peptide samples at a concentration of 10 µg/mL for 1 h. Subsequently, the treated cells were stimulated with 1 µg/mL lipopolysaccharide (LPS) for an additional 24 h. Unstimulated cells were included as a negative control. At the end of the treatment period, the conditioned medium was collected for the determination of released nitric oxide (NO). Griess’s reagent (Promega) was utilized to measure the NO concentration, following the manufacturer’s instructions. A NO calibration curve was generated to quantify the released NO in the conditioned medium.

RAW 264.7 [5] = test: Cytotoxicity assessment (MTT); format: cell-based, Murine; details: peptide 10 µg/mL, 72 h; for Cell viability, mean±SD: relative to untreated cells, n = 3, SD
Description: as §1
Cytotoxicity assessment was performed following the method described by Yang et al., with slight modifications. RAW 264.7 was seeded with 1 x 10^5 cells in a 96-well plate with an appropriate cell culture medium. After allowing the cells to attach, the medium was replaced with a fresh cell culture medium containing the peptide samples at a concentration of 10 µg/mL. The treated cells were incubated for an additional 72 h. At the designated time, fresh medium was added, which included 3-(4,5-dimethylthiazol-2-yl)-2,5-diphenyltetrazolium bromide (MTT) at a concentration of 0.5 mg/mL. After 3 h, formazan crystals were observed. The medium was then removed, and the crystals were dissolved in 100% dimethyl sulfoxide (DMSO). A microplate reader (Synergy HTX; Biotek, Multi-Mode Reader, Winooski, VT, USA) was utilized to measure the absorbance at 570 nm (measurement wavelength) and 630 nm (reference wavelength). The percentage of cell viability was calculated relative to untreated cells using the following equation (5):
Cellviability%=ODtreatment–ODblank/ODuntreated–ODblank×100 (5)
Where ODtreatment is the absorbance of the treated sample, ODuntreated is the absorbance of the untreated sample, and ODblank is the absorbance from wells without treated and untreated samples.

[6] = 10 µL sample + 190 µL FRAP solution, 15 min dark, 593 nm, FeSO4 standard curve, mean ± SD, n = 3, SD

| Sequence | DPPH, mean±SD [1] | DPPH ([1]; replicate 1) | DPPH ([1]; replicate 2) | DPPH ([1]; replicate 3) | ABTS, mean±SD [2] | ABTS ([2]; replicate 1) | ABTS ([2]; replicate 2) | ABTS ([2]; replicate 3) | FRAP [3, 6] | FRAP ([3]; supplement tables, replicate 1) | FRAP ([3]; supplement tables, replicate 2) | FRAP ([3]; supplement tables, replicate 3) | Released NO (RAW 264.7 [4]; replicate 1) | Released NO (RAW 264.7 [4]; replicate 2) | Released NO (RAW 264.7 [4]; replicate 3) | Released NO, mean±SD (RAW 264.7 [4]) | Cell viability, mean±SD (RAW 264.7 [5]) | Cell viability (RAW 264.7 [5]; replicate 1) | Cell viability (RAW 264.7 [5]; replicate 2) | Cell viability (RAW 264.7 [5]; replicate 3) |
| --- | --- | --- | --- | --- | --- | --- | --- | --- | --- | --- | --- | --- | --- | --- | --- | --- | --- | --- | --- | --- |
| GKNCGETVWE [P9, synthesized peptide identified from jellyfish fraction PUR20C] | 40.86±0.85^C TE/mg protein | 40.24 TE/mg protein | 41.83 TE/mg protein | 40.51 TE/mg protein | 103.21±2.27^F TE/mg protein | 105.08 TE/mg protein | 100.67 TE/mg protein | 103.88 TE/mg protein | 13.03±0.8^C mM FeSO4/mg protein | 13.31 mM FeSO4/mg protein | 13.73 mM FeSO4/mg protein | 12.05 mM FeSO4/mg protein | 35.86 µM | 36.20 µM | 34.82 µM | 35.63 ± 0.71 µM | 87.34% | 87.34% | 86.26% | 88.40% |
| HSVLTASYRN [P5, synthesized peptide identified from jellyfish fraction PUR20C] | 3.20 TE/mg protein | 2.84 TE/mg protein | 3.11 TE/mg protein | 3.64 TE/mg protein | 123.24±0.75^C TE/mg protein | 124.11 TE/mg protein | 122.71 TE/mg protein | 122.91 TE/mg protein | 8.19 mM FeSO4/mg protein | 7.63 mM FeSO4/mg protein | 9.52 mM FeSO4/mg protein | 7.42 mM FeSO4/mg protein | 34.13 µM | 33.44 µM | 36.20 µM | 34.59 ± 1.43 µM | 87.58% | 92.44% | 89.27% | 81.01% |
| KFNEVVYFL [P15, synthesized peptide identified from jellyfish fraction PUR20C] | 6.20±1.00^D TE/mg protein | 5.49 TE/mg protein | 5.76 TE/mg protein | 7.35 TE/mg protein | 131.66±1.15^B TE/mg protein | 132.32 TE/mg protein | 130.32 TE/mg protein | 132.32 TE/mg protein | 4.61±0.73^H mM FeSO4/mg protein | 3.84 mM FeSO4/mg protein | 4.68 mM FeSO4/mg protein | 5.31 mM FeSO4/mg protein | 32.75 µM | 32.75 µM | 34.82 µM | 33.44 µM | 87.22% | 87.87% | 85.58% | 88.22% |
